Laboratory results as given in article PMC3207004 (Clinical cancer research : an official journal of the …, 2011).

Key:
[1] = system: cultured human retinal pigment epithelial cells (RPE); conditions: cited from earlier work
[2] = system: NSCLC; conditions: cited from earlier work
[3] = Plasma pharmacokinetics of PF-04928473 after oral PF-04929113; assay type: in vivo, human

C=CCNC1=C2C[C@@H](C)C[C@H](OC)[C@H](O)[C@@H](C)/C=C(\C)[C@H](OC(N)=O)[C@@H](OC)/C=C\C=C(/C)C(=O)NC(=CC1=O)C2=O [17-AAG]
Effect on cultured human retinal pigment epithelial cells [1]: cytostaticity and cytotoxicity

C=CCNc1c(O)cc2c(O)c1C[C@@H](C)C[C@H](OC)[C@H](O)[C@@H](C)/C=C(\C)[C@H](OC(N)=O)[C@@H](OC)/C=C\C=C(/C)C(=O)N2 [IPI-504]
Objective response ([2]; 76 patients with NSCLC): 7% | Objective response, number of patients ([2]; 76 patients with NSCLC): 5 patients | Response among 3 patients with ALK rearrangements [2]: 2 PRs and one prolonged SD

CC1(C)CC(=O)c2c(C(F)(F)F)nn(-c3ccc(C(N)=O)c(N[C@H]4CC[C@H](O)CC4)c3)c2C1 [PF-04928473]
Time span in which active drug was detectable in plasma ([3]; after oral PF-04929113): detectable at 20 minutes through 48 hours | Clearance (CL/Fm) ([3]; high value): hepatic and extra-hepatic clearance | Volume of distribution (Vz/Fm) ([3]; high value): extensive tissue binding | half-life ([3]; human, plasma, oral): 8 to 15 h | Change of half-life across dose levels ([3]; in vivo): doesn’t appear to change across different dose levels | Dose linearity of pharmacokinetics ([3]; in vivo): almost linear PK | Dose linearity of pharmacokinetics ([3]; in vivo, listed as PF 04928473): almost linear pharmacokinetics | Absorption following oral administration ([3]; patients): rapid absorption | Drug accumulation after multiple dosing ([3]; twice weekly): no drug accumulation

COC1=C2C[C@@H](C)C[C@H](OC)[C@H](O)[C@@H](C)/C=C(\C)[C@H](OC(N)=O)[C@@H](OC)/C=C\C=C(/C)C(=O)NC(=CC1=O)C2=O [geldanamycin]
Effect on cultured human retinal pigment epithelial cells [1]: cytostaticity and cytotoxicity
